Experimental data reported in patent US20220257610A1, “Enhancing drug activity through accentuated buccal/sublingual administration” (priority 2019, published 2022).
Where two headings read alike, the source gives them in different places.

Columns and labels:
[1] = Comparative dosage study, sleep times in humans; assay type: in vivo; conditions: much lower dose with adjuvant, compared with oral
Description: The best method for carrying out the invention: Alprazolam and adjuvant are formulated into sublingual tablets/sprays by conventional methods and administered and sleep times recorded for humans as well as animals.

[2] = same or similar dose with permeability enhancers, compared with oral
Protocol: The clinical trials were conducted in two parts. The first part consisted of the following stages.
Further trials were carried out to determine the duration of action glipizide and adjuvant combination.
To test the efficacy of adjuvant we compared the efficacy of 5 mg of sub-lingual glipizide with adjuvant, with 5 mg of sublingual glipizide without adjuvant. […] Finally tests were carried out to determine whether the adjuvant used participates in receptor binding process. Keeping the amount of glipizide at 5 mg the quantity of adjuvant were doubled.

SMILES | increase in effect [1] [%] | increase in effect [2] [%]
Cc1nnc2n1-c1ccc(Cl)cc1C(c1ccccc1)=NC2 [alprazolam] | 200 | 
Cc1cnc(C(=O)NCCc2ccc(S(=O)(=O)NC(=O)NC3CCCCC3)cc2)cn1 [glipizide] |  | 3200
